From patent US6407081B1, “Method for inhibiting cytokine production by cells” (Previsan AG, priority 1997, dated 2002)

Experiments:
tumour necrosis factor = conditions: dose of 1 mmol; endotoxin-induced activation of alveolar macrophages; cited from earlier work
[1] = medium not stated; cited from earlier work
IL-5 = IL-5 production by PHA/PMA-stimulated mononuclear cells, ELISA (Example 7); format: cell-based; conditions: human mononuclear cells, PHA + PMA, 48 h
Method: (§1) 200 ml of blood are taken and heparinised from healthy male and female volunteers. Mononuclear cells are isolated by Ficoll-Hypaque centrifugation and resuspended in a medium consisting of RPMI 1640 complemented by 5% autologous serum, […] of glutamine, […] of penicillin, 10 μg/ml of streptomycin, 10 μg/ml of phytohaemagglutinin (PHA), 10 μg/ml of phorbol myristate acetate (PMA) and test compounds as stated per individual experiment at a cellular density of 2,000,000 per ml. The cells are distributed in 96 well microtitre plates in 250 μl portions per well and incubated for 48 hours at 37° C. The supernatants are then harvested and the IL-2 and IL-5 concentrations quantified by a standard ELISA assay using a biotin/streptavidin system. By way of variant, PHA was replaced with 0.1 μg/ml of monoclonal antibodies directed against human CD3 in order to achieve more specific activation of the T cells.

IL-2 = IL-2 production by PHA/PMA-stimulated mononuclear cells, ELISA (Example 7); format: cell-based; conditions: human mononuclear cells, PHA + PMA, 48 h
Method: as §1

CN(C)C(=O)N=NC(=O)N(C)C [A, 1,1′-azobisdimethylformamide]
production of tumour necrosis factor (tumour necrosis factor): insignificant increase | half-life [1]: only a few minutes | IL-5 inhibition (%) (IL-5; 10 μM): 12% | IL-5 inhibition (%) (IL-5; 32 μM): 29% | IL-2 inhibition (%) (IL-2; 10 μM): 3% | IL-2 inhibition (%) (IL-2; 32 μM): 28%

O=C(N=NC(=O)N1CCCCC1)N1CCCCC1 [B, 1,1′-(azodicarbonyl)dipiperidine]
inhibition at 10 µM (IL-5; 10 μM): 17% | inhibition at 32 µM (IL-5; 32 μM): 39% | inhibition at 10 µM (IL-2; 10 μM): 0.2% | inhibition at 32 µM (IL-2; 32 μM): 11%

O=C(N=NC(=O)N1CCOCC1)N1CCOCC1 [C, 1,1′-(azodicarbonyl)dimorpholine]
IL-5 inhibition (%) (IL-5; 10 μM): 37% | IL-5 inhibition (%) (IL-5; 32 μM): 51% | IL-2 inhibition (%) (IL-2; 10 μM): 6% | IL-2 inhibition (%) (IL-2; 32 μM): 9%
